Assay results reported in paper PMC3179684 (Toxicological Sciences, 2011).
Values joined by “and” are separate entries in the source; they are usually repeats but may differ in a detail not shown here. Equal entries are not always repeated. “Also recorded” adds a separate entry of the source. Where two headings read alike, the source gives them in different places. Marks after values point to notes of the source that are not given here. One block for each molecule: values may come before it.

Experiments:
[1] = molecular target: T1, epoxide hydrolase (EH) (Mus musculus, UniProt Q9D379); test: EO elimination in mouse liver microsomes; type: in vitro ADME, B6C3F1 mice; conditions: native pooled mouse liver microsomes vs heat-inactivated, 5 mg protein/ml
T1 sequence (Q9D379 1-455): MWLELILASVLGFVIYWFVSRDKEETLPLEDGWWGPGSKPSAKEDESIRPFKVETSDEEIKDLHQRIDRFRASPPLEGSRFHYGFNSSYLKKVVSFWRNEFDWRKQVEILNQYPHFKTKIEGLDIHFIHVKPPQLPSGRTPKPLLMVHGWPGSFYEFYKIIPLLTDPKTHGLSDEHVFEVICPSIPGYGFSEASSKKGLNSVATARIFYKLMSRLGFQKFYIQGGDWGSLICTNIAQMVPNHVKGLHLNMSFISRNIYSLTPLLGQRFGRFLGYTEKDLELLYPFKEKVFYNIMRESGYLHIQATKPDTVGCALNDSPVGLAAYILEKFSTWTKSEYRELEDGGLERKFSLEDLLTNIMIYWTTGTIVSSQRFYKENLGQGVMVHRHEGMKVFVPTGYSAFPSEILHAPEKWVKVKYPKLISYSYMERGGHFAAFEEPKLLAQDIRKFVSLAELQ

[2] = molecular target: T2, epoxide hydrolase (EH) (Rattus norvegicus, UniProt P07687); test: EO elimination in rat liver microsomes; type: in vitro ADME, Fischer 344 rats; conditions: native pooled rat liver microsomes vs heat-inactivated, 5 mg protein/ml
T2 sequence (P07687 1-455): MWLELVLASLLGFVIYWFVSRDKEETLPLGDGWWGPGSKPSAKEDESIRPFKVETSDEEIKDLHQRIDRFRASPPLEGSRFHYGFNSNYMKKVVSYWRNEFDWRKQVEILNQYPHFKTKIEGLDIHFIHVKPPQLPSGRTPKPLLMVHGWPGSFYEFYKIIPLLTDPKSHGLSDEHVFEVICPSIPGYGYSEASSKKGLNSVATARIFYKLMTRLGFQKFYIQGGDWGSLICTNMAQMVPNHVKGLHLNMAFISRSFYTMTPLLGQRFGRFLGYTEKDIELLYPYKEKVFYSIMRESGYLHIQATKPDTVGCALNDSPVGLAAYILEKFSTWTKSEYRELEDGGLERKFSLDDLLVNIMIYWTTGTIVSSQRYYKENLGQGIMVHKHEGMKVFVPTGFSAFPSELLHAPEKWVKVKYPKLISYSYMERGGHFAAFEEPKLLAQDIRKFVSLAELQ

[3] = molecular target: T1, epoxide hydrolase (EH); test: EO elimination in mouse lung microsomes; type: in vitro ADME, B6C3F1 mice; conditions: native pooled mouse lung microsomes vs heat-inactivated, 5 mg protein/ml
[4] = molecular target: T2, epoxide hydrolase (EH); test: EO elimination in rat lung microsomes; type: in vitro ADME, Fischer 344 rats; conditions: native pooled rat lung microsomes vs heat-inactivated, 5 mg protein/ml
[5] = test system: CYP450; test: EO incubation in pooled rat liver microsomes with NADPH-regenerating system; type: in vitro ADME, Fischer 344 rats; conditions: rat liver microsomal incubation with NADPH-regenerating system
[6] = test system: glutathione S-transferase (GST); test: GST-mediated EO elimination in mouse liver cytosol; type: in vitro ADME, B6C3F1 mice; conditions: mouse pooled liver cytosol; taking a Km of 9 mmol/l
[7] = test system: glutathione S-transferase (GST); test: GST-mediated EO elimination in rat liver cytosol; type: in vitro ADME, Fischer 344 rats; conditions: rat pooled liver cytosol; taking a Km of 9 mmol/l
[8] = test system: glutathione S-transferase (GST); test: GST-mediated EO elimination in human liver cytosol; type: in vitro ADME; conditions: human pooled liver cytosol; taking a Km of 9 mmol/l
[9] = test system: glutathione S-transferase (GST); test: GST-mediated EO elimination in mouse lung cytosol; type: in vitro ADME, B6C3F1 mice; conditions: taking a Km of 9 mmol/l
[10] = test system: glutathione S-transferase (GST); test: GST-mediated EO elimination in rat lung cytosol; type: in vitro ADME, Fischer 344 rats; conditions: taking a Km of 9 mmol/l
[11] = Nonenzymatic conjugation with GSH; type: physicochemical; conditions: GSH 15 mmol/l, 37°C, pH 7.4
[12] = Spontaneous; type: physicochemical; conditions: MgCl2 containing potassium phosphate buffer pH 7.4, 37°C
[13] = calculated from the data of ref Brown et al. (1996); cited from earlier work
[14] = test system: GSH levels in the livers; conditions: Fischer rats exposed for 4 h to 1200 ppm EO; ref McKelvey and Zemaitis (1986); cited from earlier work
[15] = 1984, cited from earlier work
[16] = mouse; ref Dunkelberg, 1981; National Toxicology Program, 1987; cited from earlier work
[17] = humans; ref IARC (1994b); cited from earlier work
[18] = molecular target: T3, epoxide hydrolase (EH) (Homo sapiens, UniProt P07099); test: EO elimination in human liver microsomes; conditions: pooled native human liver microsomes, best fit (Berkeley Madonna)
T3 sequence (P07099 1-455): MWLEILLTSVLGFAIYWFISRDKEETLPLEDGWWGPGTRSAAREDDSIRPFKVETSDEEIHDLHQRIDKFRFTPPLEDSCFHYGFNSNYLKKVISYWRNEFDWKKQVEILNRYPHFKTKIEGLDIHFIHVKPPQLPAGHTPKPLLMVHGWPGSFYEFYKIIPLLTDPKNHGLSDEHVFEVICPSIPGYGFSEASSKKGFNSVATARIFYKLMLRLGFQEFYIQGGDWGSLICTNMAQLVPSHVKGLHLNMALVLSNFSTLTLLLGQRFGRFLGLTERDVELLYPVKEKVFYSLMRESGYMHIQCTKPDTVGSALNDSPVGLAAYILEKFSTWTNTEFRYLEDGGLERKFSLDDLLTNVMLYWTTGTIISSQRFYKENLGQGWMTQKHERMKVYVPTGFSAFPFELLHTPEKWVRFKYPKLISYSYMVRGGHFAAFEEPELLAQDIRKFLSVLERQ

[19] = molecular target: T4, CYP2E1 (Mus musculus, UniProt Q05421); test: EO formation in ET-exposed mouse liver microsomes; type: in vitro ADME, B6C3F1 mice
[20] = molecular target: CYP2E1 (Rattus norvegicus, UniProt P05182); test: EO formation in ET-exposed rat liver microsomes; type: in vitro ADME, Fischer 344 rats
[21] = molecular target: CYP2E1 (Homo sapiens, UniProt P05181); test: EO formation in ET-exposed human liver microsomes; type: in vitro ADME
[22] = test system: CYP; test: EO formation in ET-exposed mouse lung microsomes; type: in vitro ADME, B6C3F1 mice
[23] = test system: CYP; test: EO formation in ET-exposed rat lung microsomes; type: in vitro ADME, Fischer 344 rats
[24] = molecular target: T4, CYP2E1; test: EO formation in ET-exposed liver microsomes of wild-type mice; type: in vitro ADME, 129S1/SvImJ mice (wild-type mice)
[25] = test system: CYP; test: EO formation in ET-exposed liver microsomes of CYP2E1 knockout mice; type: in vitro ADME, 129/Sv-Cyp2e1tm1Gonz/J mice (CYP2E1 knockout mice); conditions: pooled liver microsomes of 50 CYP2E1 knockout mice
[26] = test system: CYP; test: Metabolic ET elimination in mouse liver microsomes; type: in vitro ADME, B6C3F1 mice; conditions: 10 mg protein/ml, ET 170 ppm in vessel atmosphere
[27] = Thermodynamic partition coefficient medium-to-air; type: physicochemical; conditions: microsomal incubations, 37°C (ET n = 5, EO n = 3)
[28] = mouse, gas uptake; ref Artati et al. (2009); cited from earlier work
[29] = rat, gas uptake, cited from earlier work
[30] = test system: hepatic CYP; conditions: rats, 600 ppm ET, cited from earlier work
[31] = value used in the physiological toxicokinetic model; ref Csanády et al. (2000); cited from earlier work
[32] = in vitro and in vivo in rodents; ref Victorin and Ståhlberg, 1988; Walker et al., 2000; cited from earlier work

Sequence of CYP2E1 (Homo sapiens, UniProt P05181) (P05181 whole entry): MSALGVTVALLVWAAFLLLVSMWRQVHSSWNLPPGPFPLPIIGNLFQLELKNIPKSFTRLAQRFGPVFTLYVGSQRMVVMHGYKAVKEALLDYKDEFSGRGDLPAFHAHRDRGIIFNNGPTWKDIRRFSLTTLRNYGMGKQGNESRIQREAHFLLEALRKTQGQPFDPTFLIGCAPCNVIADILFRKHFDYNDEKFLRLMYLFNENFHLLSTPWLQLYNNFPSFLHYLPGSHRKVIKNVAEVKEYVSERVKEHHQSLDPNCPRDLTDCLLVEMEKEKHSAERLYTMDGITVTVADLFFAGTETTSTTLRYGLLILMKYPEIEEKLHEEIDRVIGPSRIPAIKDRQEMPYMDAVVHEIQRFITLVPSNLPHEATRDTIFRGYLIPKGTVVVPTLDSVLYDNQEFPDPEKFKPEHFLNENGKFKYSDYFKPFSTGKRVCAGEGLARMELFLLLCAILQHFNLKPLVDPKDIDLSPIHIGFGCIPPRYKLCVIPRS
Sequence of CYP2E1 (Rattus norvegicus, UniProt P05182) (P05182 whole entry): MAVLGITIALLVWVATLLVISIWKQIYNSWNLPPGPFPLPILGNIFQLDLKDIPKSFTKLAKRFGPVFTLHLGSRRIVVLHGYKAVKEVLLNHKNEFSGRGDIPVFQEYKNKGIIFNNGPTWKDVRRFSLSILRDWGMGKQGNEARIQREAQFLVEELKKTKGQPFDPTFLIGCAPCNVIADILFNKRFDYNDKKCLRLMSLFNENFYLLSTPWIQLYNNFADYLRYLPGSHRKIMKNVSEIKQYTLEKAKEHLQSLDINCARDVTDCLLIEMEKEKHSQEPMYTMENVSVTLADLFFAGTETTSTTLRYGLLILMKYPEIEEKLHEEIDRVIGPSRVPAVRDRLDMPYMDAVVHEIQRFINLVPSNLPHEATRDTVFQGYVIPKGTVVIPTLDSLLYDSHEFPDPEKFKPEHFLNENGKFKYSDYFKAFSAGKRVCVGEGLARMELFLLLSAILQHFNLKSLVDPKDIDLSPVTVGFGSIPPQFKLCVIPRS
T4 sequence (Q05421 whole entry): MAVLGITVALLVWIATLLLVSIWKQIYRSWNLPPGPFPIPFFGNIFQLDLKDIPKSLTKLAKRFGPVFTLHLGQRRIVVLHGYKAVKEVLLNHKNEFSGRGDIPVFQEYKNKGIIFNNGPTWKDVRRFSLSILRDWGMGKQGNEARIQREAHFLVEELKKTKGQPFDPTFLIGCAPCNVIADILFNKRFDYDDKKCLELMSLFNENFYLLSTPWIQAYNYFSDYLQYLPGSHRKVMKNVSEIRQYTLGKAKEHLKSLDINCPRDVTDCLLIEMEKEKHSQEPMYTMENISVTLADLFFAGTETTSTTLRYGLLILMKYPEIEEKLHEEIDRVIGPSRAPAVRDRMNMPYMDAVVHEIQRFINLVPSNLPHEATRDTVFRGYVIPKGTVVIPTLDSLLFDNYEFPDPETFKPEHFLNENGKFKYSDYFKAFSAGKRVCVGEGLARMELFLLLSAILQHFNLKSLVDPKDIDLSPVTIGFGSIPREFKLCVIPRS

Compound: C1CO1 [EO, ethylene oxide]
EH-catalyzed EO elimination [1]: not detectable; also recorded: no EH-catalyzed EO elimination was found | EH-catalyzed EO elimination [2]: not detectable; also recorded: no EH-catalyzed EO elimination was found | EH-catalyzed EO elimination [3]: no EH-catalyzed EO elimination was found | EH-catalyzed EO elimination [4]: no EH-catalyzed EO elimination was found | CYP-mediated EO elimination [5]: no CYP-mediated EO elimination was detected | Vmax of GST-mediated GSH conjugation with EO [6]: 251 nmol/min/mg protein | Vmax of GST-mediated GSH conjugation with EO [7]: 47.7 nmol/min/mg protein | Vmax of GST-mediated GSH conjugation with EO [8]: 10.3 nmol/min/mg protein | Vmax of GST-mediated GSH conjugation with EO [9]: 56.9 nmol/min/mg protein | Vmax of GST-mediated GSH conjugation with EO [10]: 16.0 nmol/min/mg protein | mean half-life of nonenzymatic conjugation with GSH [11]: 3.7 h | mean half-life of spontaneous hydrolysis [12]: 12.4 h | rate constant of the spontaneous hydrolysis ([12]; mean ± SE, n = 36): 0.00093 ± 7e-05 min⁻¹ | rate constant of the nonenzymatic elimination [13]: 0.001 min⁻¹ | GSH levels in the livers [14]: less than 20 % of the control value | carcinogenicity ([15]; rat, ref Dunkelberg, 1982, Garman et al., 1985, Snellings et al.): carcinogenic | carcinogenicity [16]: carcinogenic | IARC evaluation [17]: carcinogenic to humans | Vmax of EO elimination [18]: 14.35 nmol/min/mg protein

time in which hepatic CYP2E1 decreases to about one third of the initial status ([19]; mice, very high ET concentrations, expected from k4): 18 min | Km, predicted from in vitro ([19]; mouse, Km in suspension divided by Kst 0.55): 400 ppm in air | k3/k4 (partition ratio) ([19]; pooled mouse liver microsomes, mean ± SE): 100 ± 9 | k3 (catalytic rate constant of EO formation) ([19]; pooled mouse liver microsomes, VmaxEO divided by CYP2E1 content, mean ± SE): 5.9 ± 0.6 min⁻¹ | k3/k4 (partition ratio) ([20]; pooled rat liver microsomes, mean ± SE): 169 ± 15 | k3 (catalytic rate constant of EO formation) ([20]; pooled rat liver microsomes, VmaxEO divided by CYP2E1 content, mean ± SE): 11.2 ± 1.5 min⁻¹ | Km, predicted from in vitro ([20]; rat, Km in suspension divided by Kst 0.50): 1516 ppm in air | k3/k4 (partition ratio) ([21]; human liver microsomes, mean ± SE): 39 ± 6 | Km, predicted from in vitro ([21]; human, Km in suspension divided by Kst 0.33): 963 ppm in air | time in which hepatic CYP2E1 decreases to about one third of the initial status ([21]; humans, very high ET concentrations, expected from k4): 11 min | VmaxEO (maximum EO formation rate) ([21]; liver microsomes from one individual, mean ± SE): 0.253 ± 0.0002 nmol/min/mg protein | k3 (catalytic rate constant of EO formation) ([21]; pooled human liver microsomes, VmaxEO divided by CYP2E1 content, mean ± SE): 3.2 ± 0.2 min⁻¹ | VmaxEO (maximum EO formation rate) ([22]; pooled mouse lung microsomes, mean of 16,500 and 75,400 ppm ET): 0.073 nmol/min/mg protein | VmaxEO (maximum EO formation rate) ([23]; pooled rat lung microsomes, mean of 18,600 and 57,800 ppm ET): 0.055 nmol/min/mg protein | VmaxEO in wild-type mice relative to CYP2E1 knockout mice ([24]; liver microsomes): about 15 times higher | ratio of VmaxEO/Km in wild-type mice to VmaxEO/Km in CYP2E1 knockout mice ([24]; liver microsomes): 340 | VmaxEO (maximum rate of EO formation) ([24]; pooled liver microsomes of 50 wild-type mice): 1.1 nmol/min/mg protein | VmaxEO (maximum rate of EO formation) [25]: 0.074 nmol/min/mg protein | initial rate of metabolic ET elimination [26]: 0.069 nmol/min/mg protein | Keq (thermodynamic partition coefficient medium-to-air) [27]: 0.2 ± 0.06 and 0.2
Compound: C=C [ET, ethylene]
VmaxEO (maximum EO formation rate) ([19]; liver microsomes pooled from 50 mice, 37°C, mean ± SE): 0.567 nmol/min/mg protein and 0.567 ± 0.038 nmol/min/mg protein | k4 (suicide inactivation rate constant) ([19]; pooled mouse liver microsomes, six ET incubations, mean ± SE): 0.060 ± 0.005 min⁻¹ | VmaxEO (maximum EO formation rate) ([20]; liver microsomes pooled from 10 rats, 37°C, mean ± SE): 0.401 nmol/min/mg protein and 0.401 ± 0.013 nmol/min/mg protein | k4 (suicide inactivation rate constant) ([20]; pooled rat liver microsomes, eight ET incubations, mean ± SE): 0.070 ± 0.006 min⁻¹ | k4 (suicide inactivation rate constant) ([21]; human liver microsomes, nine ET incubations, mean ± SE): 0.098 ± 0.013 min⁻¹ | VmaxEO (maximum EO formation rate) ([21]; liver microsomes pooled from 25 humans, 37°C, mean ± SE): 0.219 nmol/min/mg protein and 0.219 ± 0.005 nmol/min/mg protein | k4 (suicide inactivation rate constant) ([22]; lung microsomes pooled from 150 mice, two incubations): 0.306 min⁻¹ and 0.326 min⁻¹ | k4 (suicide inactivation rate constant) ([23]; lung microsomes pooled from 50 rats, two incubations): 0.573 min⁻¹ and 0.392 min⁻¹ | Km, determined in vivo [28]: 105 ^d ppm in air | VmaxET, determined in vivo [28]: 15 ^d μmol/h/kg | Km, determined in vivo ([29]; ref Andersen et al. (1980)): 218 ^f ppm in air | VmaxET, determined in vivo ([29]; ref Andersen et al. (1980)): 8.6 ^f μmol/h/kg | Km, determined in vivo ([29]; ref Bolt et al. (1984)): 204 ^e ppm in air | VmaxET, determined in vivo ([29]; ref Bolt et al. (1984)): 8.5 ^e μmol/h/kg | hepatic 4-nitrophenol hydroxylase activity (predominantly CYP2E1) remaining ([30]; after 4 h, ref Fennell et al., 2004): 50% | hepatic CYP remaining after inactivation ([30]; after 360 min of exposure, ref Maples and Dahl, 1993): 68% | apparent Michaelis constant of the ET oxidation in the liver compartment [31]: 0.0005 mmol/L | long-term carcinogenicity study ([15]; rats, ref Hamm et al.): negative | mutagenicity [32]: negative
